Laboratory results as given in patent publication US6392055B1, “Synthesis and biological evaluation of analogs of the antimitotic marine natural product curacin A” (The University of Pittsburgh, priority 2000, dated 2002).
Read-outs that look alike come from different tables or passages of the source. One block for each molecule: values may come before it.

Assays:
PC-3 cells = test: Growth inhibition of prostate carcinoma cells (MTS); type: cell-based, human
[1] = system: MCF-7 human breast carcinoma cells; test: Mitotic index by immunofluorescence of phosphorylated core histone; type: cell-based; conditions: for concentration causing maximum mitotic block: 0.0075-15 μM
Procedure: Further verification of the biological activity of compounds 17a-e was obtained in living tumor cells by quantifying their effect on mitotic index, essentially, counting the number of cells in the mitotic phase of the cell cycle. Antimitotic compounds increase the mitotic index, which can be quantified immunohistochemically using an antibody to a mitosis-specific phosphorylated core histone protein. MCF-7 human breast carcinoma cells were treated with increasing concentrations of compounds 17a-e (7.8-1000 nM), curacin A (3.1-400 nM), and vinblastine (0.08-10 nM) for 14-16 hours. The morphology of the cellular nuclei and the mircrotubule cytoskeleton, as well as the phosphorylation of a core histone protein, were visualized using a multiparameter immunofluorescence approach. […] Compound 17b induced cell rounding and the generalized loss of structured microtubules in the same cells. The mitotic index in drug-treated cells was measured. To assess the relative activity of compounds 17a-e and two known microtubule disrupting drugs, vinblastine and curacin A, the minimum effective concentration of each drug was measured.
Phosphorylation of histone H3 occurs during mitosis and is linked to chromosome condensation. Thus, antimitotic agents cause an accumulation of cells containing […]. Wei, Y.; Mizzen, C. A.; Cook, R. G.; Gorovsky, M. A.; Allis, C. D. Proc. Natl Acad. Sci. USA 1998, 95, 7480. MCF-7 human breast carcinoma cells were treated with increasing concentrations (0.0075-15 μM) of 17mix and 17a-e for 14 hours and mitotic index quantities automatically. […] Vinblastine, a classic mitotic inhibitor, was tested over a range of 0.49 nM to 0.1 μM and caused a maximum accumulation of adherent cells in mitosis of 26%.

[2] = biological target: tubulin (colchicine site); test: Inhibition of [3H]colchicine binding to tubulin; parameters: species or system bovine; conditions: for IC50: 5 μM [3H]colchicine, 1 μM tubulin; for % CBI 5 μM, (30° C.) / % CBI 50 μM, (30° C.): 30° C. (values in parentheses); for displacement of pre-bound [3H]colchicine from tubulin, 30° C. / displacement of pre-bound [3H]colchicine from tubulin, 37° C.: equimolar (5 μM) concentration
Procedure: Assays to determine whether 15mix-17mix inhibited binding of [^3H]colchicine to tubulin at both 30° C. and 37° C. were performed. This was accomplished using methods described previously. Kang, G.-J.; Getahun, Z.; Muzaffar, A.; Brossi, A.; Hamel, E. J. Biol. Chem. 1990, 265, 10255; Verdier-Pinard, P.; Lai, J.-Y.; Yoo, H.-D.; Yu, J.; Marquez, B.; Nagle, D. G.; Nambu, M.; White, J. D.; Falck, J. R.; Gerwick, W. H.; Day, B. W.; Hamel, E. Mol. Pharmacol. 1998, 53, 62. Briefly, 5 μM [^3H]colchicine (2.3 TBq/mmol), drug (1, 5, 10, 50, or 250 μM), or vehicle (DMSO, 5% v/v) were incubated at 30° C. for 15 minutes or at 37° C. for 10 minutes with 1 μM tubulin in the presence of 1 M monosodium glutamate, 0.1 M glucose-1-phosphate, 1 mM MgCl2, 1 mM GTP, and 0.5 mg/mL bovine serum albumin. The solutions were filtered through two stacks of DEAE-cellulose filters and the radioactivity in the filtrate was determined by scintillation spectrometry. Each series of determinations included positive controls of 1, 5, and/or 50 μM curacin A.

MDA-MB231 cells = test: Growth inhibition of breast carcinoma cells (MTS); type: cell-based, human
2008 cells = test: Growth inhibition of ovarian carcinoma cells (MTS); type: cell-based, human
[3] = system: isolated bovine brain tubulin; test: Inhibition of GTP/glutamate-induced tubulin polymerization (turbidimetric, 30° C.); type: biochemical
[4] = Homo sapiens, PC-3, 48 h, read-out: GI50 PC-3 (48 h)
[5] = incubation at 30° C. for 15 minutes, read-out: 50% Colchicine Binding Inhibitory Concentration (CBI), 30° C.
[6] = incubation at 37° C. for 10 minutes, read-out: 50% Colchicine Binding Inhibitory Concentration (CBI), 37° C.
[7] = Homo sapiens, MDA-MB-231, 48 h, read-out: GI50 MDA-MB231 (48 h)
[8] = Homo sapiens, Ovarian carcinoma cell, 48 h, read-out: GI50 2008 (48 h)
[9] = read-out: 50% Tubulin Polymerization Inhibition Concentration (TPI) IC50, 30° C., 10 μM tubulin
[10] = 96 h, read-out: GI50 PC3 (prostate) 96 h
[11] = read-out: GI50 PC3 (prostate) 48 h, 48 h
[12] = read-out: GI50 prostate (PC3), 48 hours of continuous drug exposure, 48 hours continuous exposure
[13] = 96 h, read-out: GI50 MDA-MB231 (breast) 96 h
[14] = read-out: GI50 MDA-MB231 (breast) 48 h, 48 h
[15] = read-out: GI50 breast (MDA-MB231), 48 hours of continuous drug exposure, 48 hours continuous exposure
[16] = 96 h, read-out: GI50 2008 (ovarian) 96 h
[17] = read-out: GI50 2008 (ovarian) 48 h, 48 h
[18] = read-out: GI50 ovarian (2008), 48 hours of continuous drug exposure, 48 hours continuous exposure
[19] = 30° C. turbidimetric assay, N=2 over 4 concentrations, read-out: IC50, inhibition of GTP/glutamate-induced assembly of tubulin

Compound: COc1cc(/C=N\OC/C=C/C=C(\C)CCC(O)c2cccs2)cc(OC)c1OC (stereo not drawn) [JRoxime1]
GI50 (PC-3 cells; [10]): 530 ± 390 nM | GI50 (PC-3 cells; [11]): 250 nM | GI50 (PC-3 cells; [12]): 250 ± 80 nM | % CBI 5 μM, (30° C.) ([2]; 5 μM compound): (48 ± 12) % | % CBI 5 μM, 37° C. ([2]; 5 μM compound): 53 ± 2.2% | % CBI 50 μM, (30° C.) ([2]; 50 μM compound): (57 ± 15) % | % CBI 50 μM, 37° C. ([2]; 50 μM compound): 37 ± 8% | displacement of pre-bound [3H]colchicine from tubulin, 30° C. [2]: 48±12% | displacement of pre-bound [3H]colchicine from tubulin, 37° C. [2]: 53±2% | GI50 (MDA-MB231 cells; [13]): 380 ± 200 nM | GI50 (MDA-MB231 cells; [14]): 120 ± 100 nM | GI50 (MDA-MB231 cells; [15]): 120 ± 100 nM | GI50 (2008 cells; [16]): 340 ± 290 nM | GI50 (2008 cells; [17]): 240 ± 180 nM | GI50 (2008 cells; [18]): 240 ± 180 nM | % TPI 5 μM ([3]; 5 μM compound): 100% | IC50 [3, 19]: 170 ± 90 nM

Compound: COc1cc(C=NOCC2CC2CCC(C)c2cccs2)cc(OC)c1OC (stereo not drawn) [JRoxime3]
GI50 (PC-3 cells; [10]): > 50000 nM | GI50 (PC-3 cells; [11]): > 50000 nM | % CBI 5 μM, (30° C.) ([2]; 5 μM compound): (−10 ± 10) % | % CBI 5 μM, 37° C. ([2]; 5 μM compound): −30 ± 6% | % CBI 50 μM, (30° C.) ([2]; 50 μM compound): (18 ± 6) % | % CBI 50 μM, 37° C. ([2]; 50 μM compound): −30 ± 7% | GI50 (MDA-MB231 cells; [13]): > 50000 nM | GI50 (MDA-MB231 cells; [14]): > 50000 nM | GI50 (2008 cells; [16]): > 50000 nM | GI50 (2008 cells; [17]): > 50000 nM | % TPI 5 μM ([3]; 5 μM compound): 3%

Compound: CC[C@]1(O)C[C@@H]2CN(CCc3c([nH]c4ccccc34)[C@@](C(=O)OC)(c3cc4c(cc3OC)N(C)[C@H]3[C@@](O)(C(=O)OC)[C@H](OC(C)=O)[C@]5(CC)C=CCN6CC[C@]43[C@@H]65)C2)C1 [Vinblastine, vinblastine, reference compound]
maximum accumulation of adherent cells in mitosis ([1]; tested over 0.49 nM to 0.1 μM, 14 hours): 26%

Compound: C=CC[C@@H](CC/C(C)=C/C=C/CC/C=C\[C@@H]1CSC([C@@H]2C[C@@H]2C)=N1)OC [curacin A]
GI50 (PC-3 cells; 96 h, Table II prints no unit, read-out: GI50 PC3 96 h): 48 ± 8 nM | GI50 (PC-3 cells; read-out: GI50 PC3 48 h, 48 h, Table II prints no unit): 50 ± 9 nM | GI50 (PC-3 cells; read-out: GI50 PC-3 (48 h), 48 h): 50 ± 9 nM | GI50 (PC-3 cells; [12]): 50 ± 9 nM | Percent Colchicine Binding Inhibition (CBI), 5 μM ([2]; 5 μM compound): 84.9 ± 1.07 % | % CBI 5 μM, (30° C.) ([2]; 5 μM compound): (78 ± 2) % | % CBI 5 μM, 37° C. ([2]; 5 μM compound): 87 ± 9% | Percent Colchicine Binding Inhibition (CBI), 5 μM, re-test value ([2]; 5 μM compound, re-test (in parentheses)): (95.0 ± 0.7*) % | Percent Colchicine Binding Inhibition (CBI), 50 μM ([2]; 50 μM compound): 96.2 ± 0.7 % | % CBI 50 μM, (30° C.) ([2]; 50 μM compound): (99 ± 1) % | % CBI 50 μM, 37° C. ([2]; 50 μM compound): 97 ± 0% | Percent Colchicine Binding Inhibition (CBI), 50 μM, re-test value ([2]; 50 μM compound, re-test (in parentheses)): (97.7 ± 0.0*) % | displacement of pre-bound [3H]colchicine from tubulin, 30° C. [2]: 78±2% | displacement of pre-bound [3H]colchicine from tubulin, 37° C. [2]: 87±9% | IC50 [2, 5]: 900 ± 300 nM | IC50 [2, 6]: 600 ± 100 nM | GI50 (MDA-MB231 cells; 96 h, Table II prints no unit, read-out: GI50 MDA 96 h): 64 ± 7 nM | GI50 (MDA-MB231 cells; read-out: GI50 MDA 48 h, 48 h, Table II prints no unit): 186 ± 226 nM | GI50 (MDA-MB231 cells; read-out: GI50 MDA-MB231 (48 h), 48 h): 96 ± 60 nM | GI50 (MDA-MB231 cells; [15]): 96 ± 60 nM | GI50 (2008 cells; 96 h, Table II prints no unit, read-out: GI50 2008 96 h): 26 ± 12 nM | GI50 (2008 cells; read-out: GI50 2008 48 h, 48 h, Table II prints no unit): 35 ± 7 nM | GI50 (2008 cells; read-out: GI50 2008 (48 h), 48 h): 35 ± 7 nM | GI50 (2008 cells; [18]): 35 ± 7 nM | % TPI 5 μM ([3]; 5 μM compound): 98% | Percent Tubulin Polymerization Inhibition (TPI), 5 μM ([3]; 5 μM compound): 97.9% | IC50 [3, 19]: 520 ± 210 nM | IC50 [3, 9]: 780 ± 70 nM

Now from value to molecule, other results behind:

GI50 (PC-3 cells; [4]): 620 ± 50 nM | IC50 [2, 5]: 9000 ± 7000 nM | IC50 [2, 6]: 19000 ± 2000 nM | GI50 (MDA-MB231 cells; [7]): 230 ± 60 nM | GI50 (2008 cells; [8]): 360 ± 1 nM | IC50 [3, 9]: 1400 nM
Compound: COc1cc(/C=C\CC/C=C/C=C(\C)CCC(O)c2cc3ccccc3s2)cc(OC)c1OC (stereo not drawn) [Compound 17b, (4E,6E,10Z)-11-(3,4,5-Trimethoxyphenyl)-4-methyl-1-benzothiophen-2ylundeca-4,6,10-trien-1ol]
fraction of cells exhibiting condensed chromatin and increased core histone phosphorylation ([1]; 14-16 hours): large increase

GI50 (PC-3 cells; [4]): 380 ± 80 nM | IC50 [2, 5]: 39000 ± 10000 nM | IC50 [2, 6]: 9000 ± 3000 nM | GI50 (MDA-MB231 cells; [7]): 280 ± 40 nM | GI50 (2008 cells; [8]): 280 ± 20 nM | IC50 [3, 9]: 1200 nM
Compound: COc1cc(/C=C\CC/C=C/C=C(\C)CCC(O)c2cccs2)cc(OC)c1OC (stereo not drawn) [Compound 17c, (4E,6E,10Z)-11-(3,4,5-Trimethoxyphenyl)-4-methyl-1-thiophen-2-ylundeca-4,6,10-trien-1-ol]
concentration causing maximum mitotic block ([1]; 14 hours): sub-micromolar

GI50 (PC-3 cells; [4]): 310 ± 200 nM | IC50 [2, 5]: 9000 ± 4000 nM | IC50 [2, 6]: 28000 ± 8000 nM | GI50 (MDA-MB231 cells; [7]): 120 ± 70 nM | GI50 (2008 cells; [8]): 270 ± 50 nM | IC50 [3, 9]: 1600 nM
Compound: COc1cc(/C=C\CC/C=C/C=C(\C)CCC(O)c2cc3ccccc3o2)cc(OC)c1OC (stereo not drawn) [Compound 17e, (4E,6E,10Z)-11-(3,4,5-Trimethoxyphenyl)-4-methyl-1-benzofuran-2-ylundeca-4,6,10-trien-1-ol]
concentration causing maximum mitotic block ([1]; 14 hours): sub-micromolar
